Test results: patent US8445505B2 (IRM LLC, priority 2008, dated 2013)

target: IGF1R Ba/F3 (Homo sapiens, UniProt P08069); experiment: Ba/F3 Cell Viability Inhibition Assay (Tel-TK transformed Ba/F3 lines); format: cell-based, murine; design: the printed alternative; conditions: Tel-TK (IGF1R) transformed Ba/F3 cells, 48 hours incubation, cell viability (Britelite luminescence)
Text: Ba/F3 is a murine IL-3-dependent pro-B lymphoma cell line. Parental Ba/F3 cells are used to generate a panel of sublines whose proliferation and survival is rendered IL-3-independent by stable transduction with individual tyrosine kinases activated by fusion with the amino-terminal portion of TEL (amino acid 1-375) or BCR. In order to generate Ba/F3 cell lines transformed by Tel-Tyrosine Kinase (TK) fusions, parental Ba/F3 cells are infected with a retrovirus harboring each TEL-fusion kinase and subjected to puromycin selection and IL-3 withdrawal to obtain IL-3-independent, transformed Ba/F3 cells.
Each transformed Ba/F3 cells are cultured in RPMI-1640 media (Gibco Cat #11875093, Carlsbad, Calif.) supplemented with 10% FBS (Hyclone Cat #SV30014.03, Logan, Utah), 4.5 g/L glucose (Sigma #G5400, St.Louis, Mo.), 1.5 g/L sodium bicarbonate (Biowhittaker #17-613E, Walkersville, Md.) and Pen/Strep (Gibco #10378-016, Carlsbad, Calif.). Cells are splitted twice weekly.
The potency of test compounds against various Tel-TK transformed Ba/F3 lines is determined as follows. Exponentially growing BaF3 Tel-TK cells are diluted in fresh medium to 75,000 cells/mL and seeded into 384-well plates (3750 cells/well) at 50 μL/well using a gill liquid dispenser (BioTek, Winooski, Vt., USA). Duplicate plates are run for each cell line. Test and control compounds are serially diluted with DMSO and arrayed in a polypropylene 384-well plate. 50 nL of compound is transferred into the assay plates using a pin-transfer device, and the plates are incubated at 37° C. (5% CO2) for 48 hours. 25 μL Britelite (Perkin Elmer) is added and luminescence is quantified using Analyst GT (Molecular Devices). Custom curve-fitting software is used to produce a logistic fit of percent cell viability as a function of the logarithm of inhibitor concentration. The IC50 is interpolated as the concentration of compound needed to reduce cell viability to 50% of a DMSO control. Parental Ba/F3 cells that are maintained and cultured in presence of IL-3 (1 ng/ml in final) are diluted in fresh medium containing IL-3 (1 ng/ml in final) to 75,000 cells/mL following the same procedure as described above.

Sequence of IGF1R Ba/F3 (P08069 999-1274 limits assumed): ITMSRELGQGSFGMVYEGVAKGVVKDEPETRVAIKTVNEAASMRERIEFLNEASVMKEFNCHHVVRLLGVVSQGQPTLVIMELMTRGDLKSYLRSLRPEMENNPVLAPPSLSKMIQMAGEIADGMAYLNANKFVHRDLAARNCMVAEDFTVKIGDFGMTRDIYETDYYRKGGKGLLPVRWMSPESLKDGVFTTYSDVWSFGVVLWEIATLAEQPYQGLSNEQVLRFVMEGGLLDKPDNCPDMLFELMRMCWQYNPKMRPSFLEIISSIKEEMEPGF

Question: How did the IC50 turn out when Cc1cc(Nc2nc(Nc3cc(C)c([C@H]4CC[C@@H](N5CCN(C)CC5)CC4)cc3F)ncc2Cl)n[nH]1 [Compound 52, Cis-5-chloro-N2-(2-fluoro-5-methyl-4-(4-(4-methylpiperazin-1-yl)cyclohexyl)phenyl)-N4-(5-methyl-1H-pyrazol-3-yl)pyrimidine-2,4-diamine] was run?
Answer: The IC50 was 24 nM.

Question: Cc1cc(Nc2nc(Nc3cc(C)c([C@H]4CC[C@H](N5CCN(C)CC5)CC4)cc3F)ncc2Cl)[nH]n1 [Compound 53, Trans-5-chloro-N2-(2-fluoro-5-methyl-4-(4-(4-methylpiperazin-1-yl)cyclohexyl)phenyl)-N4-(5-methyl-1H-pyrazol-3-yl)pyrimidine-2,4-diamine] was tested. Which IC50 did it give?
Answer: Its IC50 is 25 nM.

Question: How did the IC50 turn out when Cc1cc(Nc2nc(Nc3cc(C)c([C@H]4CC[C@@H](N5CC[C@H](O)C5)CC4)cc3F)ncc2Cl)n[nH]1 [Compound 54, (S)-1-((Cis)-4-(4-(5-chloro-4-(5-methyl-1H-pyrazol-3-ylamino)pyrimidin-2-ylamino)-5-fluoro-2-methylphenyl)cyclohexyl)pyrrolidin-3-ol] was run?
Answer: Its IC50 is 16 nM.

Question: With Cc1cc(Nc2nc(Nc3cc(C)c([C@H]4CC[C@H](N5CC[C@H](O)C5)CC4)cc3F)ncc2Cl)n[nH]1 [Compound 55, (S)-1-((Trans)-4-(4-(5-chloro-4-(5-methyl-1H-pyrazol-3-ylamino)pyrimidin-2-ylamino)-5-fluoro-2-methylphenyl)cyclohexyl)pyrrolidin-3-ol] as the molecule, how does the IC50 read?
Answer: The IC50 was 32 nM.

Question: CCN(CC)[C@H]1CC[C@@H](c2cc(F)c(Nc3ncc(Cl)c(Nc4cc(C)[nH]n4)n3)cc2C)CC1 [Compound 56, 5-chloro-N2-(4-((cis)-4-(diethylamino)cyclohexyl)-2-fluoro-5-methylphenyl)-N4-(5-methyl-1H-pyrazol-3-yl)pyrimidine-2,4-diamine] was tested. Which IC50 did it give?
Answer: The IC50 was 25 nM.

Question: Which IC50 does the source give for CCN(CC)[C@H]1CC[C@H](c2cc(F)c(Nc3ncc(Cl)c(Nc4cc(C)[nH]n4)n3)cc2C)CC1 [Compound 57, 5-chloro-N2-(4-((trans)-4-(diethylamino)cyclohexyl)-2-fluoro-5-methylphenyl)-N4-(5-methyl-1H-pyrazol-3-yl)pyrimidine-2,4-diamine] here?
Answer: The IC50 was 31 nM.

Question: With Cc1cc(Nc2nc(Nc3cc(C)c([C@H]4CC[C@@H](N5CCNCC5)CC4)cc3F)ncc2Cl)n[nH]1 [Compound 58, 5-chloro-N2-(2-fluoro-5-methyl-4-((cis)-4-(piperazin-1-yl)cyclohexyl)phenyl)-N4-(5-methyl-1H-pyrazol-3-yl)pyrimidine-2,4-diamine] as the molecule, how does the IC50 read?
Answer: Its IC50 is 17 nM.

Question: With Cc1cc(Nc2nc(Nc3cc(C)c([C@H]4CC[C@H](N5CCNCC5)CC4)cc3F)ncc2Cl)n[nH]1 [Compound 59, 5-chloro-N2-(2-fluoro-5-methyl-4-((trans)-4-(piperazin-1-yl)cyclohexyl)phenyl)-N4-(5-methyl-1H-pyrazol-3-yl)pyrimidine-2,4-diamine] as the molecule, how does the IC50 read?
Answer: The IC50 was 39 nM.

Question: Which IC50 does the source give for Cc1cc(Nc2nc(Nc3cc(C)c([C@H]4CC[C@@H](N5CCCCC5)CC4)cc3C)ncc2C(F)(F)F)n[nH]1 [Compound 60, N2-(2,5-dimethyl-4-((cis)-4-(piperidin-1-yl)cyclohexyl)phenyl)-N4-(5-methyl-1H-pyrazol-3-yl)-5-(trifluoromethyl)pyrimidine-2,4-diamine] here?
Answer: The IC50 was 4 nM.

Question: For Cc1cc(Nc2nc(Nc3cc(C)c([C@H]4CC[C@H](N5CCCCC5)CC4)cc3C)ncc2C(F)(F)F)n[nH]1 [Compound 61, N2-(2,5-dimethyl-4-((trans)-4-(piperidin-1-yl)cyclohexyl)phenyl)-N4-(5-methyl-1H-pyrazol-3-yl)-5-(trifluoromethyl)pyrimidine-2,4-diamine], which IC50 is on record?
Answer: Its IC50 is 3 nM.

Question: With Cc1cc(Nc2nc(Nc3cc(C)c([C@H]4CC[C@@H](N5CCCCC5)CC4)cc3F)ncc2C(F)(F)F)n[nH]1 [Compound 62, N^2-(2-fluoro-5-methyl-4-(cis-4-(piperidin-1-yl)cyclohexyl)phenyl)-N^4-(5-methyl-1H-pyrazol-3-yl)-5-(trifluoromethyl)pyrimidine-2,4-diamine] as the molecule, how does the IC50 read?
Answer: The IC50 was 18 nM.
